Data set [1] has as its system A549 cells. Kind of data set: Cellular uptake of siRNA by flow cytometry on A549 cells. The settings on record: A549, 10:1 ratio, fluorescently labelled siRNA, 4 h. It counts as cell-based, human. The procedure:
Flow cytometry was used to investigate the cellular uptake of peptide/siRNA complexes. A549 cells and Calu-3 cells were seeded in six-well plates at a density of 2.5×10^5 cells and 4×10^5 cells per well, respectively, one day before the experiment. The cells were transfected with peptide/siRNA complexes at 10:1 ratio (w/w) containing fluorescently labelled siRNA (150 nM) in Opti-MEM I reduced serum medium. The transfection medium was removed after 4 h of incubation, and the cells were washed with PBS once. The cells were trypsinized by 0.25% (w/v) trypsin-EDTA and suspended in culture medium. The extracellular fluorescence signal was quenched with 0.04% (w/v) trypan blue solution. After 2 min of incubation, the cells were washed with PBS thrice. The cells were resuspended in 500 μL of PBS and sieved with a sterile 40 μm cell strainer (BD Biosciences, CA, USA). The fluorescence intensity was analyzed by flow cytometry with PE/PI laser (585/42 nm) (BD FACSCantoII Analyzer, BD Biosciences, CA, USA). At least 10,000 single cells were analyzed for each sample.

A short description of data set [2]: Circular dichroism, temperature ramping. Format: physicochemical. The settings on record: 6 to 94 °C, 5 mM Tris-HCl buffer, 0.1 mg/mL. The procedure: KL4 and PEG6KL4 peptides were dissolved in 5 mM Tris-HCl buffer at a final concentration of 0.1 mg/mL in 0.1% (v/v) DMSO. PEG12KL4 and PEG24KL4 were dissolved in 5 mM Tris-HCl buffer at a final concentration of 0.1 mg/mL without DMSO. CD spectra were acquired on a Chirascan™ Spectrometer (Applied Photophysics, Leatherhead, UK). For temperature ramping experiment, far-UV CD spectra were obtained with the peptide solution incubated from 6° C. to 94° C. Spectra were recorded from 260 to 190 nm using a 0.5 mm path length and were processed using Chirascan software where a spectrum of the peptide free solution was subtracted and Savitzky-Gorlay smoothing applied.
In general terms: Circular dichroism is the unequal absorption of left and right circularly polarised light.

The subject of data set [3] is A549 cells. Kind of data set: Cellular uptake study of mRNA (flow cytometry and confocal microscopy). The settings on record: 10:1 ratio (w/w), cyanine-5 labelled mRNA, 4 h post-transfection, flow cytometry. Format: cell-based, human. The method, then: The cellular uptake of the mRNA was studied by flow cytometry and confocal microscopy. For the flow cytometry study, A549 cells were seeded in 24-well plates at a density of 0.5×10^5 cells per well one day before the experiment. The cells were transfected with naked mRNA, KL4/mRNA and PEG12KL4/mRNA complexes at 10:1 ratio (w/w) in OptiMEM I reduced serum medium containing 1 μg of cyanine-5 labelled EGFP mRNA per well. After 4 h of incubation, the cells were washed and trypsinized. Cells from three separate wells of the same treatment were combined and suspended in culture medium. The extracellular florescent signal was quenched with 0.04% (w/v) trypan blue solution. After 2 min, the cells were washed, resuspended in 300 μL of PBS and sieved with a sterile 40 μm cell strainer (BD Biosciences, CA, USA). The fluorescence intensity was analyzed by flow cytometry (BD FACSCantoII Analyzer, BD Biosciences, CA, USA). At least 1×10^4 single cells were analyzed for each sample. For the confocal study, A549 cells were seeded in a 35 mm Mattek glass bottom culture dish (Mattek Corp. Ashland, MA, USA) at a density of 1×10^5 cells per well one day before imaging. Naked mRNA, KL4/mRNA and PEG12KL4/mRNA complexes at 10:1 ratio (w/w) were prepared in Opti-MEM I reduced serum medium with 2 μg of cyanine-5 labelled mRNA per dish. […]
A general note: A flow cytometer gives signals particle by particle.

Data set [4] is described as follows: Charge ratio of peptide to siRNA at 10:1 weight ratio. The source says: This is partly because the uncharged PEG chains reduced the effective charge ratio between cationic KL4 and siRNA [77]. The charge ratios of KL4, PEG6KL4, PEG12KL4 and PEG24KL4 to siRNA at 10:1 weight ratio are 6.1 to 1, 5.5 to 1, 4.9 to 1 and 4.2 to 1, respectively. […] The molecular weight of the PEG used in this study, which is below 1,200 Da, is relatively low compared with others where PEG of 2,000 to 5,000 Da was often used. Therefore, PEGylated KL4 peptide/siRNA complexes remained to be positively charged, which is suitable for cellular entry. […] In addition, PEG also provides steric hindrance between the interaction of KL4 and siRNA that weakens the binding, promoting the release of siRNA from the complexes after the addition of heparin.

In data set [5] the test system is A549 cells. The data set is described as follows: GAPDH siRNA transfection on A549 cells (Western blot). Format: cell-based, human. The procedure: A549 cells were seeded in 6-well plates at a density of 1.5×10^5 cells per well one day before transfection. The cells were transfected with peptide/siRNA complexes containing 50 pmol of GAPDH siRNA or negative control siRNA per well (50 nM). The complexes were prepared in OptiMEM I reduced serum medium at 10:1, 15:1 and 20:1 ratios (w/w). Lipofectamine 2000 was used as control. The complexes were added to the cells and incubated for 4 h at 5% CO2, 37° C. before being washed with PBS. The transfection medium was removed and replaced with serum supplemented cell culture medium. At 72 h post-transfection, the cells were washed and lysed with cell lysis buffer. Western blotting assay was performed to analyze the level of GAPDH protein. The GAPDH expression was analyzed by densitometry of Western Blots using Image J software. The remaining GAPDH expression was the density of the GAPDH band of positive control (normalized with beta-actin of the corresponding sample) divided by the GAPDH band of negative control (normalized with the beta actin band of the corresponding sample).
(§1) A549 cells, BEAS-2B and Calu-3 cells were seeded in six-well plates at a density of 1.6×10^5 cells per well, 2×10^5 cells per well and 3×10^5 cells per well, respectively, one to two days before transfection. The cells were transfected with peptide/siRNA complexes at 5:1 to 20:1 ratio (w/w) containing GAPDH siRNA or negative control siRNA (6 to 100 nM) in OptiMEM I reduced serum medium. Lipofectamine 2000 was used for comparison. After 5 h of incubation, the cells were washed and replaced with serum supplemented cell culture medium. At 72 h post-transfection, the cells were washed and lysed with cell lysis buffer. Western blotting assay was performed to analyze the level of GAPDH protein as previously described. The GAPDH expression was analyzed by densitometry of Western blots using ImageJ software (Version 1.52). The GAPDH expression was normalized with the expression of […]-actin of the corresponding sample. The remaining GAPDH expression was the normalized GAPDH expression of positive control divided by the normalized GAPDH expression of negative control.
(In western blotting, separated proteins are transferred to a membrane and probed.)

Data set [6] is described as follows: Solubility of peptides in water. Format: physicochemical.
Data set [7] deals with Calu-3 cells. Kind of data set: GAPDH siRNA transfection on Calu-3 cells (Western blot). Format: cell-based, human. The settings on record: one-way ANOVA, Tukey, n.s. not significant, * p<0.05, ** p<0.01, *** p<0.001. The procedure: as §1
Data set [8] concerns siRNA. Kind of data set: Fluorescence displacement assay of siRNA binding and heparin release. The settings on record: 10:1 ratio, heparin titration. The procedure: The siRNA binding affinity of the peptides was investigated by fluorescence displacement assay using negative control siRNA. The siRNA was added into 1× SYBR® Gold Tris-acetate-EDTA (TAE) buffer and incubated for 30 min at room temperature. The fluorescence intensity was quantified by fluorescence spectrophotometer (SpectraMax® M4, Molecular devices, LLC., CA, USA) at 495 nm excitation and 537 nm emission wavelengths. The peptides at concentration of 1 mg/mL were titrated to the siRNA/dye mixtures. The fluorescence intensity of siRNA/dye mixture in the presence of peptides was expressed as a percentage of that of the siRNA/dye mixture without peptides. The background fluorescence was subtracted from all measurements before analysis. Percentage change of fluorescence intensity was plotted against the weight ratio of peptides to siRNA upon titration. To further investigate the binding profile of the peptide/siRNA complexes, heparin was added to dissociate the complexes and release the siRNA. […] The heparin diluted in TAE buffer at concentration of 10 or 100 i.u./μL was titrated into the peptide/siRNA/dye mixture and the fluorescence intensity was measured as described above. Percentage change of fluorescence intensity was plotted against the amount of heparin upon titration. The data was fit to a four-parameter logistic sigmoidal curve and the EC50 and Hill slope were calculated.

Data set [9] relates to BEAS-2B cells. The data set is described as follows: GAPDH siRNA transfection on BEAS-2B cells (Western blot). The settings on record: one-way ANOVA, Tukey, n.s. not significant, * p<0.05, ** p<0.01, *** p<0.001. Format: cell-based, human. The method, then:
as §1

Read-outs that look alike come from different tables or passages of the source. Non-standard residues stand in square brackets, D forms with d. Residues, ends and D or L forms follow the SMILES beside them. PEG24 = NCCOCCOCCOCCOCCOCCOCCOCCOCCOCCOCCOCCOCCOCCOCCOCCOCCOCCOCCOCCOCCOCCOCCOCCOCCC(=O)O A value given as a limit tells only on which side of the number the result lay.

Usually solubility stands for how much of the substance goes into solution per volume. High values mean a readily soluble substance, low ones a poorly soluble substance. For the compound `CC(C)C[C@H](NC(=O)[C@H](CC(C)C)NC(=O)[C@H](CC(C)C)NC(=O)[C@H](CC(C)C)NC(=O)[C@H](CCCCN)NC(=O)[C@H](CC(C)C)NC(=O)[C@H](CC(C)C)NC(=O)[C@H](CC(C)C)NC(=O)[C@H](CC(C)C)NC(=O)[C@H](CCCCN)NC(=O)[C@H](CC(C)C)NC(=O)[C@H](CC(C)C)NC(=O)[C@H](CC(C)C)NC(=O)[C@H](CC(C)C)NC(=O)[C@H](CCCCN)NC(=O)[C@H](CC(C)C)NC(=O)[C@H](CC(C)C)NC(=O)[C@H](CC(C)C)NC(=O)[C@H](CC(C)C)NC(=O)[C@@H](N)CCCCN)C(=O)N[C@@H](CCCCN)C(N)=O` [KL4, reference compound] (H-KLLLLKLLLLKLLLLKLLLLK-NH2; N-terminus assumed), in [1], the “percentage of cells with siRNA uptake” value is on record as “less than 20%”. Besides, in [2], the “secondary structure at different temperatures (far-UV CD)” value is listed as “the alpha-helical structure gradually turned to a beta-sheet conformation”. Besides, in data set [3], the “percentage of cells with mRNA uptake” value was 15%. Besides, the “charge ratio of peptide to siRNA” value in [4] is listed as 6.1 to 1. Further, the “Comparison within the same peptide prepared at different peptide to siRNA ratios” value in data set [5] (A549, one-way ANOVA, Tukey, n.s. not significant, * p<0.05, ** p<0.01, *** p<0.001) is “n.s”. The same compound came in with a solubility in data set [6] (water) of less than 1000 µg/mL.

Regarding `CC(C)C[C@H](NC(=O)[C@H](CC(C)C)NC(=O)[C@H](CC(C)C)NC(=O)[C@H](CC(C)C)NC(=O)[C@H](CCCCN)NC(=O)[C@H](CC(C)C)NC(=O)[C@H](CC(C)C)NC(=O)[C@H](CC(C)C)NC(=O)[C@H](CC(C)C)NC(=O)[C@H](CCCCN)NC(=O)[C@H](CC(C)C)NC(=O)[C@H](CC(C)C)NC(=O)[C@H](CC(C)C)NC(=O)[C@H](CC(C)C)NC(=O)[C@H](CCCCN)NC(=O)[C@H](CC(C)C)NC(=O)[C@H](CC(C)C)NC(=O)[C@H](CC(C)C)NC(=O)[C@H](CC(C)C)NC(=O)[C@H](CCCCN)NC(=O)CCOCCOCCOCCOCCOCCOCCOCCOCCOCCOCCOCCOCCOCCOCCOCCOCCOCCOCCOCCOCCOCCOCCOCCOCCN)C(=O)N[C@@H](CCCCN)C(N)=O` [PEG24KL4] (H-[PEG24]KLLLLKLLLLKLLLLKLLLLK-NH2; N-terminus assumed), the “Comparison within the same peptide prepared at different peptide to siRNA ratios” value in [7] was “n.s”; in [9], 5:1 vs 20:1 *. The “binding affinity between peptide and siRNA” value in data set [8] is listed as “weakest”. Besides, the “secondary structure at different temperatures (far-UV CD)” value in data set [2] is given as “adopted an alpha-helical structure at all tested temperatures”. Further, the “charge ratio of peptide to siRNA” value in [4] is given as 4.2 to 1. In addition, the “siRNA transfection efficiency among the four peptides at different amounts of siRNA” value in data set [5] (A549, 10:1 ratio, 6 to 100 nM siRNA, 72 h) was “lowest transfection efficiency”. In data set [6], the solubility was more than 2000 µg/mL.

The values above are taken from US12589161B2, “PEGylated synthetic KL4 peptide, compositions and methods thereof” (THE UNIVERSITY OF HONG KONG, priority 2019, dated 2026).
